Where two headings read alike, the source gives them in different places.
How the values were obtained:
[1] = tested on: subjects with cirrhosis and HE; test: HALT-HE clinical trial: count of HE events over 16 weeks by plasma ammonia level; assay type: in vivo, human
Description: The relationship between HE events and fasting ammonia levels was evaluated in subjects from the HALT-HE clinical trial (HPN-100-008, ClinicalTrials.gov identifier NCT00999167). To be eligible for HE analysis, subject had to (1) be included in the HALT-HE (Part B) safety population, (2) have at least one treatment with a study drug (either HPN-100 or placebo), and (3) have a quantifiable measurement of plasma ammonia from a blood specimen drawn at the visit and time point of interest. Of the 178 total subjects enrolled in the HALT-HE study and included in the safety population, 171 met the additional criteria.
Fasting ammonia levels were measured on day 1 (baseline) and at days 7 and 14. Day 1 values were derived from the measurement closest to, but prior to, initiation of dosing. Day 7 and 14 values were obtained from the nominal visit day and time point (pre-dose or 4-hour). To account for differences in local laboratories used during the clinical trial, local measurements of ammonia were standardized to an upper limit of normal (ULN) of 35 μmol/L according to the following formula:
Ammoniastd=Ammonialocal*(35/ULN of Ammonialocal).
[…] An HE event was defined as the occurrence of either (1) a West Haven Grade 2 or above or (2) a West Haven Grade 1 AND an asterixis grade increase of 1, if baseline West Haven was 0.
To describe the relationship between plasma ammonia levels and HE events, ammonia levels at the nominal times were initially grouped into five categories as multiples of the standardized ULN (35 μmol/L): (1) [0-≦0.5], (2) [0.5-≦1.0], (3) [1.0-≦1.5], (4) [1.5-≦2.0], and (5) [>2.0].
Each subject had between zero and eight HE episodes over the course of their exposure to study drug. The relationship between ammonia at a given nominal time and the number of HE events was modeled using a negative binomial model whereby the effect of study drug was considered only after controlling for ammonia level. […] Based on the model, the number of HE events was estimated for each level of ammonia. By comparing each level of ammonia to the lowest level, the pattern of the relationship could not only be described but also statistically tested through a priori contrasts.
The relationship between HE events and ammonia levels at day 7 (pre-dose), day 7 (four hours after dosing), day 14 (pre-dose), and day 14 (four hours after dosing) for each of these groups is summarized in FIGS. 2-6. […] The relationship between HE events and ammonia levels at day 1, day 7 (pre-dose), day 7 (four hours after dosing), day 14 (pre-dose), and day 14 (four hours after dosing) for each of these groups is summarized in Tables 1-5, respectively. In each table, the first three rows for each treatment group show results for the three category model ([0-1.0], [>1.0-1.5], and [>1.5]), while the next two rows show results for the two category model ([0-1.5] and [>1.5]). Note that, based on the statistical methodology, estimation of HE events for input category >1.5 in a two category model is not necessarily equal to the result for the three category model.

[2] = Conversion of PAA prodrug to urinary PAGN in 130 HE patients at steady state dosing; assay type: in vivo, human; conditions: steady state dosing with NaPBA or equivalent dose of HPN-100
Description: As disclosed herein, additional trials have been performed to evaluate the conversion of PAA to urinary PAGN in subjects with HE. Urinary PAGN output was measured in 130 HE patients during steady state dosing with either NaPBA or an equivalent dose of HPN-100. As summarized in Table 11, the mean percent conversion of PAA prodrug to urinary PAGN in HE patients was about 57%, with a 95% confidence interval range of 52-63%.

[3] = cited from earlier work; for Mean percent conversion of HPN-100 to urinary PAGN: 8 subjects
[4] = ammonia on day 7, four hours post-dose, [0-1.0] ULN, three category model
[5] = ammonia on day 7, four hours post-dose, [0-1.5] ULN, two category model
[6] = ammonia on day 7, four hours post-dose, [>1.0-1.5] ULN, three category model
[7] = ammonia on day 7, four hours post-dose, [>1.5] ULN, three category model
[8] = ammonia on day 7, four hours post-dose, [>1.5] ULN, two category model
[9] = ammonia on day 14 (pre-dose), [0-1.0] ULN, three category model
[10] = ammonia on day 14 (pre-dose), [0-1.5] ULN, two category model
[11] = ammonia on day 14 (pre-dose), [>1.0-1.5] ULN, three category model
[12] = ammonia on day 14 (pre-dose), [>1.5] ULN, three category model
[13] = ammonia on day 14 (pre-dose), [>1.5] ULN, two category model
[14] = ammonia on day 14, four hours post-dose, [0-1.0] ULN, three category model
[15] = ammonia on day 14, four hours post-dose, [0-1.5] ULN, two category model
[16] = ammonia on day 14, four hours post-dose, [>1.0-1.5] ULN, three category model
[17] = ammonia on day 14, four hours post-dose, [>1.5] ULN, three category model
[18] = ammonia on day 14, four hours post-dose, [>1.5] ULN, two category model
[19] = pre-dose ammonia on day 1, [0-1.0] ULN, three category model
[20] = pre-dose ammonia on day 1, [0-1.5] ULN, two category model
[21] = pre-dose ammonia on day 1, [>1.0-1.5] ULN, three category model
[22] = pre-dose ammonia on day 1, [>1.5] ULN, three category model
[23] = pre-dose ammonia on day 1, [>1.5] ULN, two category model
[24] = pre-dose ammonia on day 7, [0-1.0] ULN, three category model
[25] = pre-dose ammonia on day 7, [0-1.5] ULN, two category model
[26] = pre-dose ammonia on day 7, [>1.0-1.5] ULN, three category model
[27] = pre-dose ammonia on day 7, [>1.5] ULN, three category model
[28] = pre-dose ammonia on day 7, [>1.5] ULN, two category model

## O=C(CCCc1ccccc1)OCC(COC(=O)CCCc1ccccc1)OC(=O)CCCc1ccccc1 [HPN-100, glyceryl tri-[4-phenylbutyrate]]
[1]; [4]
  No. of per-subject HE Events Estimated over 16 weeks: 0.16
  No. of per-subject HE Events Estimated over 52 weeks: 0.51
  No. of per-subject HE Events Max: 2
  No. of per-subject HE Events Min: 0
[1]; [5]
  No. of per-subject HE Events Estimated over 16 weeks: 0.41
  No. of per-subject HE Events Estimated over 52 weeks: 1.34
  No. of per-subject HE Events Max: 5
  No. of per-subject HE Events Min: 0
[1]; [6]
  No. of per-subject HE Events Estimated over 16 weeks: 0.88
  No. of per-subject HE Events Estimated over 52 weeks: 2.85
  No. of per-subject HE Events Max: 5
  No. of per-subject HE Events Min: 0
[1]; [7]
  No. of per-subject HE Events Estimated over 16 weeks: 1.16
  No. of per-subject HE Events Estimated over 52 weeks: 3.77
  No. of per-subject HE Events Max: 4
  No. of per-subject HE Events Min: 0
[1]; [8]
  No. of per-subject HE Events Estimated over 16 weeks: 1.18
  No. of per-subject HE Events Estimated over 52 weeks: 3.85
  No. of per-subject HE Events Max: 4
  No. of per-subject HE Events Min: 0
[1]; [9]
  No. of per-subject HE Events Estimated over 16 weeks: 0.36
  No. of per-subject HE Events Estimated over 52 weeks: 1.18
  No. of per-subject HE Events Max: 5
  No. of per-subject HE Events Min: 0
[1]; [10]
  No. of per-subject HE Events Estimated over 16 weeks: 0.37
  No. of per-subject HE Events Estimated over 52 weeks: 1.21
  No. of per-subject HE Events Max: 5
  No. of per-subject HE Events Min: 0
[1]; [11]
  No. of per-subject HE Events Estimated over 16 weeks: 0.40
  No. of per-subject HE Events Estimated over 52 weeks: 1.29
  No. of per-subject HE Events Max: 2
  No. of per-subject HE Events Min: 0
[1]; [12]
  No. of per-subject HE Events Estimated over 16 weeks: 1.29
  No. of per-subject HE Events Estimated over 52 weeks: 4.21
  No. of per-subject HE Events Max: 4
  No. of per-subject HE Events Min: 0
[1]; [13]
  No. of per-subject HE Events Estimated over 16 weeks: 1.29
  No. of per-subject HE Events Estimated over 52 weeks: 4.21
  No. of per-subject HE Events Max: 4
  No. of per-subject HE Events Min: 0
[1]; [14]
  No. of per-subject HE Events Estimated over 16 weeks: 0.28
  No. of per-subject HE Events Estimated over 52 weeks: 0.92
  No. of per-subject HE Events Max: 4
  No. of per-subject HE Events Min: 0
[1]; [15]
  No. of per-subject HE Events Estimated over 16 weeks: 0.33
  No. of per-subject HE Events Estimated over 52 weeks: 1.09
  No. of per-subject HE Events Max: 4
  No. of per-subject HE Events Min: 0
[1]; [16]
  No. of per-subject HE Events Estimated over 16 weeks: 0.41
  No. of per-subject HE Events Estimated over 52 weeks: 1.33
  No. of per-subject HE Events Max: 2
  No. of per-subject HE Events Min: 0
[1]; [17]
  No. of per-subject HE Events Estimated over 16 weeks: 0.96
  No. of per-subject HE Events Estimated over 52 weeks: 3.13
  No. of per-subject HE Events Max: 4
  No. of per-subject HE Events Min: 0
[1]; [18]
  No. of per-subject HE Events Estimated over 16 weeks: 0.97
  No. of per-subject HE Events Estimated over 52 weeks: 3.14
  No. of per-subject HE Events Max: 4
  No. of per-subject HE Events Min: 0
[1]; [19]
  No. of per-subject HE Events Estimated over 16 weeks: 0.25
  No. of per-subject HE Events Estimated over 52 weeks: 0.80
  No. of per-subject HE Events Max: 2
  No. of per-subject HE Events Min: 0
[1]; [20]
  No. of per-subject HE Events Estimated over 16 weeks: 0.39
  No. of per-subject HE Events Estimated over 52 weeks: 1.26
  No. of per-subject HE Events Max: 5
  No. of per-subject HE Events Min: 0
[1]; [21]
  No. of per-subject HE Events Estimated over 16 weeks: 0.61
  No. of per-subject HE Events Estimated over 52 weeks: 1.98
  No. of per-subject HE Events Max: 5
  No. of per-subject HE Events Min: 0
[1]; [22]
  No. of per-subject HE Events Estimated over 16 weeks: 1.35
  No. of per-subject HE Events Estimated over 52 weeks: 4.37
  No. of per-subject HE Events Max: 4
  No. of per-subject HE Events Min: 0
[1]; [23]
  No. of per-subject HE Events Estimated over 16 weeks: 1.36
  No. of per-subject HE Events Estimated over 52 weeks: 4.41
  No. of per-subject HE Events Max: 4
  No. of per-subject HE Events Min: 0
[1]; [24]
  No. of per-subject HE Events Estimated over 16 weeks: 0.29
  No. of per-subject HE Events Estimated over 52 weeks: 0.95
  No. of per-subject HE Events Max: 2
  No. of per-subject HE Events Min: 0
[1]; [25]
  No. of per-subject HE Events Estimated over 16 weeks: 0.45
  No. of per-subject HE Events Estimated over 52 weeks: 1.47
  No. of per-subject HE Events Max: 5
  No. of per-subject HE Events Min: 0
[1]; [26]
  No. of per-subject HE Events Estimated over 16 weeks: 0.90
  No. of per-subject HE Events Estimated over 52 weeks: 2.92
  No. of per-subject HE Events Max: 5
  No. of per-subject HE Events Min: 0
[1]; [27]
  No. of per-subject HE Events Estimated over 16 weeks: 1.38
  No. of per-subject HE Events Estimated over 52 weeks: 4.50
  No. of per-subject HE Events Max: 4
  No. of per-subject HE Events Min: 0
[1]; [28]
  No. of per-subject HE Events Estimated over 16 weeks: 1.40
  No. of per-subject HE Events Estimated over 52 weeks: 4.56
  No. of per-subject HE Events Max: 4
  No. of per-subject HE Events Min: 0
[2]
  Mean percent conversion of PAA prodrug to urinary PAGN: consistent
[3]; control group of healthy adults with normal hepatic function
  Mean percent conversion of HPN-100 to urinary PAGN: 68.6%
[3]; hepatic impairment with cirrhosis, Child-Pugh score A
  Mean percent conversion of HPN-100 to urinary PAGN: 79.6%
[3]; hepatic impairment with cirrhosis, Child-Pugh score B
  Mean percent conversion of HPN-100 to urinary PAGN: 58.2%
[3]; hepatic impairment with cirrhosis, Child-Pugh score C
  Mean percent conversion of HPN-100 to urinary PAGN: 85.0%
[3]; overall for the four subject groups
  Overall mean percent conversion of HPN-100 to urinary PAGN: about 75%

## O=C(O)CCCc1ccccc1 [sodium PBA, reference compound]
[2]
  Mean percent conversion of PAA prodrug to urinary PAGN: consistent
